# From ChEMBL document CHEMBL1142959, “Semisynthetic approaches to laspartomycin analogues” (2007)
# Positions of bridges follow the written chain, without caps; N, C: chain ends. Non-standard residues stand in square brackets, D forms with d. Residues, ends and D or L forms follow the SMILES beside them. *: point of attachment. Lauroyl = CCCCCCCCCCCC(=O)*; Pip = O=C(O)[C@@H]1CCCCN1; Dap = NC[C@H](N)C(=O)O
# Legend:
# Format in all cases: functional
# Staphylococcus aureus [1] = assay: Antimicrobial activity against methicillin-sensitive Staphylococcus aureus Smith ATCC 19636 by tube dilution method
# Staphylococcus aureus [2] = assay: Antimicrobial activity against methicillin-resistant Staphylococcus aureus ATCC 43300 by broth microdilution method
# [3] = test system: Staphylococcus epidermidis; assay: Antimicrobial activity against methicillin-resistant Staphylococcus epidermidis ATCC 51625 by broth microdilution method
# Staphylococcus aureus [4] = assay: Antimicrobial activity against vancomycin-intermediate Staphylococcus aureus CDC HIP 5836 by broth microdilution method
# Enterococcus faecalis = assay: Antimicrobial activity against vancomycin-sensitive Enterococcus faecalis ATCC 29212 by broth microdilution method
# Enterococcus faecium = assay: Antimicrobial activity against vancomycin/multidrug-resistant Enterococcus faecium ATCC 51559 by broth microdilution method
# Staphylococcus aureus [5] = assay: Antimicrobial activity against methicillin-sensitive Staphylococcus aureus Smith ATCC 19636 by broth microdilution method
# [6] = Staphylococcus aureus, Smith, read-out: MIC
MIC (Staphylococcus aureus [1]; [6]) [µg/mL],Compound,also measured
8,CCCCCCCCCCCCOC(=O)N[C@@H](CC(N)=O)C(=O)N[C@H]1CNC(=O)[C@@H]2CCCN2C(=O)[C@H]([C@H](C)CC)NC(=O)[C@H]([C@@H](C)O)NC(=O)CNC(=O)[C@H](CC(=O)O)NC(=O)CNC(=O)[C@H](CC(=O)O)NC(=O)CNC(=O)[C@@H]2CCCCN2C1=O,–
4,CCCCCCCCCCCCCCCCS(=O)(=O)N[C@@H](Cc1c[nH]c2ccccc12)C(=O)N[C@@H](CC(=O)O)C(=O)N[C@H]1CNC(=O)[C@@H]2CCCN2C(=O)[C@H]([C@H](C)CC)NC(=O)[C@H]([C@@H](C)O)NC(=O)CNC(=O)[C@H](CC(=O)O)NC(=O)CNC(=O)[C@H](CC(=O)O)NC(=O)CNC(=O)[C@@H]2CCCCN2C1=O,–
> 64,"CCCCCCCCCCCCCCC(=O)N[C@@H](Cc1c[nH]c2ccccc12)C(=O)N[C@H](CC(=O)O)C(=O)N[C@H]1CNC(=O)[C@@H]2CCCN2C(=O)[C@H]([C@H](C)CC)NC(=O)[C@H]([C@@H](C)O)NC(=O)CNC(=O)[C@H](CC(=O)O)NC(=O)CNC(=O)C(CC(=O)O)NC(=O)CNC(=O)[C@@H]2CCCCN2C1=O (single isomer, unassigned)",–
> 64,"CCCCCCCCCCCCCCC(=O)NCC(=O)N[C@@H](CC(=O)O)C(=O)N[C@H]1CNC(=O)[C@@H]2CCCN2C(=O)[C@H]([C@H](C)CC)NC(=O)[C@H]([C@@H](C)O)NC(=O)CNC(=O)[C@H](CC(=O)O)NC(=O)CNC(=O)C(CC(=O)O)NC(=O)CNC(=O)[C@@H]2CCCCN2C1=O (single isomer, unassigned)",–
> 64,"CCCCCCCCCCCCCCC(=O)N[C@@H](C)C(=O)N[C@@H](CC(=O)O)C(=O)N[C@H]1CNC(=O)[C@@H]2CCCN2C(=O)[C@H]([C@H](C)CC)NC(=O)[C@H]([C@@H](C)O)NC(=O)CNC(=O)[C@H](CC(=O)O)NC(=O)CNC(=O)C(CC(=O)O)NC(=O)CNC(=O)[C@@H]2CCCCN2C1=O (single isomer, unassigned)",–
> 64,"CCCCCCCCCCCCCCC(=O)N[C@H]1CNC(=O)[C@@H]2CCCN2C(=O)[C@H]([C@H](C)CC)NC(=O)[C@H]([C@@H](C)O)NC(=O)CNC(=O)[C@H](CC(=O)O)NC(=O)CNC(=O)C(CC(=O)O)NC(=O)CNC(=O)[C@@H]2CCCCN2C1=O (single isomer, unassigned)",–
64,"CCCCCCCCCCCCCCC(=O)N[C@@H](CCC(=O)O)C(=O)N[C@H]1CNC(=O)[C@@H]2CCCN2C(=O)[C@H]([C@H](C)CC)NC(=O)[C@H]([C@@H](C)O)NC(=O)CNC(=O)[C@H](CC(=O)O)NC(=O)CNC(=O)C(CC(=O)O)NC(=O)CNC(=O)[C@@H]2CCCCN2C1=O (single isomer, unassigned)",–
2,CC[C@@H](C)[C@@H]1NC(=O)[C@H]([C@@H](C)O)NC(=O)CNC(=O)[C@H](CC(=O)O)NC(=O)CNC(=O)[C@H](CC(=O)O)NC(=O)CNC(=O)[C@@H]2CCCCN2C(=O)[C@@H](NC(=O)[C@H](CC(=O)O)NC(=O)/C=C/CCCCCCCCCC(C)C)CNC(=O)[C@@H]2CCCN2C1=O [LASPARTOMYCIN C],–

# More lines, now with the values behind:
Compound,MIC (Staphylococcus aureus [1]; [6]) [µg/mL],also measured
CCCCCCCCCCCCCCC(=O)N[C@@H](CC(=O)O)C(=O)N[C@H]1CNC(=O)[C@@H]2CCCN2C(=O)[C@H]([C@H](C)CC)NC(=O)[C@H]([C@@H](C)O)NC(=O)CNC(=O)[C@H](CC(=O)O)NC(=O)CNC(=O)[C@H](CC(=O)O)NC(=O)CNC(=O)[C@@H]2CCCCN2C1=O,–,MIC (Staphylococcus aureus [1]): >128 µg/mL
CCCCCCCCCCCCCCC(=O)N[C@@H](Cc1c[nH]c2ccccc12)C(=O)N[C@@H](CC(=O)O)C(=O)N[C@H]1CNC(=O)[C@@H]2CCCN2C(=O)[C@H]([C@H](C)CC)NC(=O)[C@H]([C@@H](C)O)NC(=O)CNC(=O)[C@H](CC(=O)O)NC(=O)CNC(=O)[C@H](CC(=O)O)NC(=O)CNC(=O)[C@@H]2CCCCN2C1=O,–,MIC (Staphylococcus aureus [1]): 16 µg/mL
CCCCCCCCCCCCCCCCNC(=O)N[C@@H](CC(N)=O)C(=O)N[C@H]1CNC(=O)[C@@H]2CCCN2C(=O)[C@H]([C@H](C)CC)NC(=O)[C@H]([C@@H](C)O)NC(=O)CNC(=O)[C@H](CC(=O)O)NC(=O)CNC(=O)[C@H](CC(=O)O)NC(=O)CNC(=O)[C@@H]2CCCCN2C1=O,2,–
CCCCCCCCCCCCCCNC(=O)N[C@@H](Cc1ccccc1)C(=O)N[C@@H](CC(N)=O)C(=O)N[C@H]1CNC(=O)[C@@H]2CCCN2C(=O)[C@H]([C@H](C)CC)NC(=O)[C@H]([C@@H](C)O)NC(=O)CNC(=O)[C@H](CC(=O)O)NC(=O)CNC(=O)[C@H](CC(=O)O)NC(=O)CNC(=O)[C@@H]2CCCCN2C1=O,4,MIC (Staphylococcus aureus [2]): 4 µg/mL; MIC [3]: 4 µg/mL; MIC (Staphylococcus aureus [4]): 8 µg/mL; MIC (Enterococcus faecalis): 2 µg/mL; MIC (Enterococcus faecium): 8 µg/mL; MIC (Staphylococcus aureus [5]): 4 µg/mL
CCCCCCCCCCCCS(=O)(=O)N[C@@H](CC(N)=O)C(=O)N[C@H]1CNC(=O)[C@@H]2CCCN2C(=O)[C@H]([C@H](C)CC)NC(=O)[C@H]([C@@H](C)O)NC(=O)CNC(=O)[C@H](CC(=O)O)NC(=O)CNC(=O)[C@H](CC(=O)O)NC(=O)CNC(=O)[C@@H]2CCCCN2C1=O,16,–
CCCCCCCCCC(=O)N[C@@H](Cc1c[nH]c2ccccc12)C(=O)N[C@@H](CC(=O)O)C(=O)N[C@H]1CNC(=O)[C@@H]2CCCN2C(=O)[C@H]([C@H](C)CC)NC(=O)[C@H]([C@@H](C)O)NC(=O)CNC(=O)[C@H](CC(=O)O)NC(=O)CNC(=O)[C@H](CC(=O)O)NC(=O)CNC(=O)[C@@H]2CCCCN2C1=O,> 64,–
CCCCCCCCCCCCCCCCS(=O)(=O)N[C@@H](Cc1ccccc1)C(=O)N[C@@H](CC(=O)O)C(=O)N[C@H]1CNC(=O)[C@@H]2CCCN2C(=O)[C@H]([C@H](C)CC)NC(=O)[C@H]([C@@H](C)O)NC(=O)CNC(=O)[C@H](CC(=O)O)NC(=O)CNC(=O)[C@H](CC(=O)O)NC(=O)CNC(=O)[C@@H]2CCCCN2C1=O,4,MIC (Staphylococcus aureus [2]): 8 µg/mL; MIC [3]: 4 µg/mL; MIC (Staphylococcus aureus [4]): > 64 µg/mL; MIC (Enterococcus faecalis): 2 µg/mL; MIC (Enterococcus faecium): 4 µg/mL; MIC (Staphylococcus aureus [5]): > 64 µg/mL
CCCCCCCCCCCCCCCCS(=O)(=O)N[C@@H](Cc1c[nH]c2ccccc12)C(=O)N[C@H]1CNC(=O)[C@@H]2CCCN2C(=O)[C@H]([C@H](C)CC)NC(=O)[C@H]([C@@H](C)O)NC(=O)CNC(=O)[C@H](CC(=O)O)NC(=O)CNC(=O)[C@H](CC(=O)O)NC(=O)CNC(=O)[C@@H]2CCCCN2C1=O,> 64,–
CCCCCCCCCCCC(=O)N[C@@H](Cc1c[nH]c2ccccc12)C(=O)N[C@@H](CC(N)=O)C(=O)N[C@H]1CNC(=O)[C@@H]2CCCN2C(=O)[C@H]([C@@H](C)CC)NC(=O)[C@H]([C@@H](C)O)NC(=O)CNC(=O)[C@H](CC(=O)O)NC(=O)CNC(=O)[C@H](CC(=O)O)NC(=O)CNC(=O)[C@@H]2CCCCN2C1=O (Lauroyl-WN[Dap][Pip]GDGDGTIP; lactam 3-C),8,–
"CCCCCCCCCC(=O)N[C@@H](CC(=O)O)C(=O)N[C@H]1CNC(=O)[C@@H]2CCCN2C(=O)[C@H]([C@H](C)CC)NC(=O)[C@H]([C@@H](C)O)NC(=O)CNC(=O)[C@H](CC(=O)O)NC(=O)CNC(=O)C(CC(=O)O)NC(=O)CNC(=O)[C@@H]2CCCCN2C1=O (single isomer, unassigned)",> 64,–
"CCCCCCCCCCCCCCC(=O)N[C@@H](CC(=O)O)C(=O)N[C@H]1CNC(=O)[C@@H]2CCCN2C(=O)[C@H]([C@H](C)CC)NC(=O)[C@H]([C@@H](C)O)NC(=O)CNC(=O)[C@H](CC(=O)O)NC(=O)CNC(=O)C(CC(=O)O)NC(=O)CNC(=O)[C@@H]2CCCCN2C1=O (single isomer, unassigned)",–,MIC (Staphylococcus aureus [1]): 2 µg/mL; MIC (Staphylococcus aureus [2]): 4 µg/mL; MIC [3]: 8 µg/mL; MIC (Staphylococcus aureus [4]): 16 µg/mL; MIC (Enterococcus faecalis): 4 µg/mL; MIC (Enterococcus faecium): 4 µg/mL; MIC (Staphylococcus aureus [5]): 4 µg/mL
"CCCCCCCCCCc1ccc(C(=O)N[C@@H](CC(=O)O)C(=O)N[C@H]2CNC(=O)[C@@H]3CCCN3C(=O)[C@H]([C@H](C)CC)NC(=O)[C@H]([C@@H](C)O)NC(=O)CNC(=O)[C@H](CC(=O)O)NC(=O)CNC(=O)C(CC(=O)O)NC(=O)CNC(=O)[C@@H]3CCCCN3C2=O)cc1 (single isomer, unassigned)",1,–
"CCCCCCCCCCCCc1ccc(C(=O)N[C@@H](CC(=O)O)C(=O)N[C@H]2CNC(=O)[C@@H]3CCCN3C(=O)[C@H]([C@H](C)CC)NC(=O)[C@H]([C@@H](C)O)NC(=O)CNC(=O)[C@H](CC(=O)O)NC(=O)CNC(=O)C(CC(=O)O)NC(=O)CNC(=O)[C@@H]3CCCCN3C2=O)cc1 (single isomer, unassigned)",2,–
"CC[C@@H](C)[C@@H]1NC(=O)[C@H]([C@@H](C)O)NC(=O)CNC(=O)[C@H](CC(=O)O)NC(=O)CNC(=O)C(CC(=O)O)NC(=O)CNC(=O)[C@@H]2CCCCN2C(=O)[C@@H](NC(=O)[C@H](CC(=O)O)NC(=O)CCCCCCCCCCOc2ccccc2)CNC(=O)[C@@H]2CCCN2C1=O (single isomer, unassigned)",> 64,–
"CCCCCCCCCCCCCCC(=O)N[C@@H](Cc1c[nH]c2ccccc12)C(=O)N[C@@H](CC(=O)O)C(=O)N[C@H]1CNC(=O)[C@@H]2CCCN2C(=O)[C@H]([C@H](C)CC)NC(=O)[C@H]([C@@H](C)O)NC(=O)CNC(=O)[C@H](CC(=O)O)NC(=O)CNC(=O)C(CC(=O)O)NC(=O)CNC(=O)[C@@H]2CCCCN2C1=O (single isomer, unassigned)",8,–
"CCCCCCCCCCCCCCC(=O)N[C@H](Cc1ccccc1)C(=O)N[C@@H](CC(=O)O)C(=O)N[C@H]1CNC(=O)[C@@H]2CCCN2C(=O)[C@H]([C@H](C)CC)NC(=O)[C@H]([C@@H](C)O)NC(=O)CNC(=O)[C@H](CC(=O)O)NC(=O)CNC(=O)C(CC(=O)O)NC(=O)CNC(=O)[C@@H]2CCCCN2C1=O (single isomer, unassigned)",4,–
"CCCCCCCCCCCCCCC(=O)N[C@@H](CCCCN)C(=O)N[C@@H](CC(=O)O)C(=O)N[C@H]1CNC(=O)[C@@H]2CCCN2C(=O)[C@H]([C@H](C)CC)NC(=O)[C@H]([C@@H](C)O)NC(=O)CNC(=O)[C@H](CC(=O)O)NC(=O)CNC(=O)C(CC(=O)O)NC(=O)CNC(=O)[C@@H]2CCCCN2C1=O (single isomer, unassigned)",16,–
